Measurements published in patent US20190314311A1, “PHARMACEUTICAL COMPOSITION” (JAPAN SCIENCE AND TECHNOLOGY AGENCY, priority 2016, published 2019).

What was measured:
[1] = test system: Thio-Q62 protein; assay: seed-induced polyQ aggregation reaction (turbidity); format: biochemical; settings: 10 μM Thio-Q62 + seeds, 400 mM arginine or proline, 37° C., 7 days
Description: A solution in which abnormally expanded proteins were dissolved in physiological saline phosphate (PBS) was used as a measurement sample. The solution was incubated at 37° C., and turbidity at 405 nm was measured every 24 hours using a microplate reader “Spectramax Plus plate reader” (Molecular Devices Inc.).

[2] = test system: Thio-Q62 protein; assay: native PAGE of β-sheet conformational transition; format: biochemical; settings: 8.2 μM Thio-Q62, 600 mM arginine, PBS pH 7.5, 37° C., five days
From the text: The separated proteins were stained with Coomassie brilliant blue (CBB).

[3] = test system: COS-7 cells expressing Q45-GFP; assay: FCS analysis of polyQ oligomer formation in cell lysates; format: cell-based; settings: 25 mM arginine, lysed 48 hours after transfection
Description: For polyQ oligomer formation, the fluorescent protein GFP fused with a protein having a PolyQ repeat consisting of 45 glutamines (Q45-GFP) was used as the monomer. Two indices obtained from FCS measurement were used to assess the property of polyQ oligomers; counts per particle (CPP) and the diffusion time of the fast components (DT1) (Non-Patent Document 11). […] DT1 reflects the size of the Q45-GFP oligomers.
FCS analysis was performed by the method described in Non-Patent Document 11. […] The cell lysates were gently sonicated and centrifuged to remove insoluble Q45-GFP inclusion bodies. The resulting supernatants containing no visible inclusion bodies were subjected to FCS measurements. From the measurements, the diffusion time, which corresponds to the average time for diffusion of fluorescent particles across the detection area and CPP, which directly reflects the number of fluorescent molecules per particle, were calculated.

[4] = test system: Q40-GFP expressing nematode line; assay: tail-flick test in C. elegans model of the PolyQ diseases; format: in vivo, Caenorhabditis elegans; settings: 10 mM arginine, 6 days old nematodes, 20° C.
Description: (§1) As a C. elegans model of the polyQ diseases, a Q40-GFP expressing nematode line (Non-Patent Document 14), which is a C. elegans line expressing GFP having a polyQ repeat consisting of 40 glutamines (Q40-GFP) was used.
(§2) Nematodes were grown at 20° C. on nematode growth medium (NGM) plates seeded with Escherichia coli OP50. For the generation of the Q40-GFP expression nematode line, plasmids encoding Q40-GFP were injected into wild type strain N2.
Tail-flick tests were performed at 20° C. on nematodes synchronized to 6 days old. First, each nematode was transferred to a separate plate. One drop of S-basal solution was dropped on one nematode, and after waiting for 5 minutes for them to recover, the number of movements of the tail of the worm was measured for 1 minute. The number of movements of the tail was defined as the number of times to change the bending direction of the mid-body of a nematode.

[5] = test system: Q40-GFP expressing nematode line; assay: lifespan analysis in C. elegans model of the PolyQ diseases; format: in vivo, Caenorhabditis elegans; settings: 10 mM arginine; log-rank P<0.01
Description: as §1, §2
For lifespan analysis, nematodes were cultured on OP50 bacteria, and were examined daily for signs of life.

[6] = test system: SCA1 mice; assay: balance beam test; format: in vivo, mouse; settings: 6% arginine in drinking water from 3 weeks; 28 weeks of age; vs untreated SCA1 mice
Description: SCA1 mice were also examined using the balance beam test to assess the motor coordination. For balance beam analysis, mice were assessed on their time to cross a beam with 1 m-long and 15 mm-diameter. The beam was placed approximately 50 cm above the ground with a bright light at the starting end and a dark box at the far end. Mice were initially trained for 3 consecutive days, 2 trials each, so that they learn to cross the beam without falling or turning around. On testing days, the time it took the mice to cross the beam was recorded. If the mice took longer than 60 seconds to cross, the score was counted as 60 seconds. Two trials were performed for each mouse, and a faster time was used for analysis.

[7] = test system: SCA1 mice; assay: rotarod test, arginine from 5 weeks of age (after onset); format: in vivo, mouse; settings: 6% arginine in drinking water from 5 weeks of age; 7 to 19 weeks of age; significant at 15 and 19 weeks
Description: An important factor of consideration in developing treatments for neurodegenerative diseases including polyQ diseases is whether the drug exerts its therapeutic effect at the symptomatic phase when the pathological process has already progressed. To date, therapeutic candidates have been administered to polyQ disease mice prophylactically at the pre-symptomatic phase in most preclinical studies.
The rotarod test was carried out in the same manner as in Example 4. The time courses of the amount of walking time until wild type mice and SCA1 mice fell from the rotarod (Latency) are shown in FIG. 21. In the figure, “WT Water”, “WT Arg”, “SCA1 Water”, and “SCA1 Arg” represent the same as in FIG. 17. In the figure, values represent means±SEM (n=23-25), “*” represents p<0.05.

[8] = test system: SBMA mice; assay: horizontal open-field activity and rearing behavior; format: in vivo, mouse; settings: 6% arginine in drinking water from 3 weeks; 12 weeks of age
From the text: As another PolyQ disease mouse model, the SBMA mouse (Non-Patent Document 18) was used. […] This motor dysfunction can be reversed with drug treatment (Non-Patent Document 19). The SBMA mouse used in this experiment was a kind gift from Dr. Gen Sobue (Nagoya University, Japan).
The motor dysfunction of the SBMA mouse can be monitored as spontaneous motor dysfunction, by measuring horizontal open-field activity and rearing behavior in the cage (Non-Patent Document 18). […] As a control, water without arginine was given to SBMA mice as drinking water (arginine untreated).
Horizontal open-field activity and rearing behavior were measured using a spontaneous locomotor activity monitor “Supermex” (Muromachi Kikai) according to the method described in Non-Patent Document 18. Specifically, a mouse was placed in a measuring cage in which infrared beams were projected inside and were allowed to move around freely. When the mouse moves inside the measuring cage, the infrared beam is obstructed and the infrared ray cannot be detected by the light receiving part (beam break). The number of beam breaks per minute was determined by measuring the number of beam breaks (counts/min). To detect movements in the horizontal direction, the number of beam breaks of the infrared beams projected in the vertical direction were counted. […]

[9] = biological target: T1, amyloid-β (beta) 1-42 (Homo sapiens, UniProt P05067); settings: Non-Patent Document 2; cited from earlier work
T1 construct: amyloid-β (beta) 1-42
T1 sequence (P05067 672-713 limits assumed): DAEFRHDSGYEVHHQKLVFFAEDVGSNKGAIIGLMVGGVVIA

[10] = Non-Patent Document 5; cited from earlier work
[11] = Non-Patent Documents 3 and 4; cited from earlier work

**Q.** With `N=C(N)NCCC[C@H](N)C(=O)O` [arginine] as the compound, how does the “seed-induced increase in turbidity” value [1] read?
**A.** Its value is “markedly decreased”.

**Q.** And the “band of β-sheet-rich monomer (native PAGE, CBB)” value [2]?
**A.** The value was “did not appear even when incubated for a sufficient period of time”.

**Q.** What about the “counts per particle (CPP)” value [3] of the same compound?
**A.** The value was “decreased compared to untreated cells”.

**Q.** And the “diffusion time of the fast components (DT1)” value [3]?
**A.** The value was “decreased compared to untreated cells”.

**Q.** What about the “tail movements per minute” value [4] of the same compound?
**A.** Its value is “significantly improved”.

**Q.** What about the survival rate [5] of the same compound?
**A.** The survival rate was “significantly improved”.

**Q.** And the “time to cross the balance beam” value [6]?
**A.** Its value is “significantly less time”.

**Q.** What about the “time to walk without falling from the rotarod” value [7] of the same compound?
**A.** The value was “longer time to walk without falling from the rotarod than the untreated SCA1 mice”.

**Q.** And the horizontal activity [8]?
**A.** The horizontal activity was “improved to levels comparable to untreated wild type mice”.

**Q.** And the rearing behavior [8]?
**A.** Its rearing behavior is “improved to levels comparable to untreated wild type mice”.

**Q.** What about the “aggregation of amyloid-β 1-42” value [9] of the same compound?
**A.** Its value is “prevents aggregation”.

**Q.** What about the “crossing of the blood brain barrier (BBB)” value [10] of the same compound?
**A.** The value was “known to cross the blood brain barrier”.

**Q.** What about the “safety in clinical trials” value [11] of the same compound?
**A.** Its value is “safety of arginine has been established”.
